This is an account of results in patent US6696081B2, “Carbohydrate based lipid compositions and supramolecular structures comprising same” (Duke University, priority 2000, dated 2004).

For this assay, the system named is PLA2 (naja naja venom). The experiment in a line: pH-stat phospholipase assay. In kind it is biochemical. The method, then: The pH-stat phospholipase assays were performed on a Metrohm 718 STAT Titrino pH-stat following a procedure described by Yuan et al. (Yuan, W.; Berman, R. J.; Gelb, M. H. J. Am. Chem. Soc. 1987, 109, 8071-8081; Deems, R. A.; Dennis, E. A. Methods Enzym 1981, 71, 703-710.) Before the assays were performed, the pH-stat was calibrated at pH 7 and pH 4. The NaOH (0.01 N) titrant was standardized by titration to pH 8.65 with a weighed amount of potassium hydrogen-phthalate in 40 mL of Dl water. The lipid was transferred to a 5 mL round bottom flask in methylene chloride/methanol (98/2) and the solvent was removed by rotoevaporation. High vacuum then removed trace amounts of remaining solvent. The lipid film was rehydrated with 2 mL of an aqueous solution containing TRITON X-100™ detergent (Sigma Chemical Company, St. Louis, Mo.) (40 mM) and CaCl2 (10 mM) and then sonicated briefly to solubilize the lipids.
Next, the solution was immersed in a temperature-controlled bath at 40° C. and stirred with a magnetic stir bar. A stream of argon was passed over the reaction mixture to prevent CO2 absorption. A microelectrode (Metrohm 6.0224.100 pH 1-11/0-60° C. Idrolyte) was inserted through the top of the reaction vessel along with the dosing tube from the pH-stat. The reaction mixture was adjusted to a pH of 8.2 by addition of NaOH. Next, 0.2 units of PLA2 (naja naja venom, Sigma Chemical Company, St. Louis, Mo.) (0.1 units/mL) was added to the reaction and the reaction started. The pH was allowed to drop to 8.0 and held at this value by addition of NaOH. At pH 8, the fatty acids were almost completely ionized; therefore, the amount of base added as a function of time indicates cleavage of the ester bond.
In this Example, enzymatic activity was recorded using a pH-stat, which maintains a specific pH by adding base during the enzymatic reaction. During these assays, DMPC was hydrolyzed with an initial average rate of 6.19 E-08 (moles NaOH/minute) (std dev 6.72E-10).
Next, whether DMRPC inhibits PLA2 activity was investigated. Using DMPC (5 mM) as a substrate, DMRPC was added to the reaction mixture at varying concentrations. […] With a change in structure, different carbohydrate-based phospholipids could inhibit PLA2.

As to “methyl-2,3-di-O-myristoyl-b-D-ribo-5-phosphocholine [DMRPC]”, the “hydrolysis rate of DMPC with DMRPC added” value (DMPC (5 mM) as substrate, DMRPC added to the reaction mixture) is recorded as 6.32E-08 (std. dev. 1.36E-08) moles NaOH/minute. In addition, the “inhibition of PLA2 activity” value (DMPC (5 mM) as substrate, as much as 4 mM DMRPC added) was “did not yield a significant hydrolysis rate decrease”. Besides, the “initial average rate of hydrolysis by PLA2” value (lipid as substrate, Triton X-100 40 mM, CaCl2 10 mM, 40° C., pH 8.0, PLA2 0.1 units/mL) is “not hydrolyzed”.
